The values below come from patent publication US20040121307A1, “Early detection of cellular differentiation using optophoresis” (Genoptix, Inc, priority 2002, published 2004).

Molecules are shown by their SMILES. Values after ≈ are worked out from the molar mass of the structure shown.

What all share (assay type): cell-based
In assay [1] the test system is U937 cells. Nature of the assay: Experiment 1: time course dependence of PMA activation, escape velocity. The protocol: The objective of this experiment is to compare the escape velocities of U937 cells that have been treated with the phorbol ester, phorbol 12 myristate 13-acetate (PMA), to the escape velocity of untreated U937 cells. PMA activates the Protein Kinase C pathway and may cause the cells to go into rapid cell differentiation, which may be indicated by a shift in escape velocity. […] At the end of the activation period, the cells were centrifuged for 4 minutes at 10,000 rpm. The supernatant was then removed and the pellet resuspended in 1 ml PBS/1% BSA buffer. The cells were then centrifuged again and resuspended in buffer. The escape velocity and the cell size of cells from each tube were then calculated.
The time dependent effect of PMA was clearly present as can been seen in the shift of escape velocity to higher speeds over greater time periods.

For assay [2], the system named is U937 cells. Kind of assay: Experiment 13: quantitative determination of PKC activation, escape velocity dose response. To be noted: for escape velocity, Average: five hours. As to the method: Optophoretic analysis was used to develop a full dose response curve for U937 cells treated with PMA. U937 cells were incubated with varying amounts of PMA dissolved in DMSO. The following concentrations of PMA were tested: 0.156 ng/ml, 0.312 ng/ml, 0.625 ng/ml, 1.25 ng/ml, 2.5 ng/ml, 5 ng/ml, and no PMA (control). The cells were incubated with the PMA solutions (or simply DMSO in the case of the control) for five hours. At the end of the incubation period, the cells were centrifuged down for five minutes at 5000 rpm. The supernatent was then removed and the pellet resuspended in 1 ml PBS/1% BSA buffer plus 1:10 trypan blue. The cells were then loaded onto a cover slip containing agarose that was spin-coated onto the surface thereof. Escape velocity measurements were then taken using a 100 mW laser having a beam diameter of 28 pixels. Table 9 reproduced below sets forth the measured escape velocities (μm/sec) for each of the various PMA concentrations.
The method described above may be used to quantitatively determine the level of PKC activation in cells in response to exposure to PKC activating compound using a moving optical gradient. The method includes the steps of first providing a series of cell samples and exposing the series of cell samples to different concentrations of the PKC activating compound. After a period of incubation from about one to several hours, the cells and the optical gradient are moved relative to each other so as to cause displacement of at least some of the cells. Next, the displacement of at least a portion of the displaced cells is measured for each of the different concentrations. […] From the dose response curve, one is able to calculate one or more numerical values that correlate to PKC potency and/or efficacy. For example, the dose response curve can be used to calculate the EC50, Hill slope, or plateau value relative to a standard compound.

For a further assay, the system named is HL-60 cells. Kind of assay: Cellular differentiation of HL-60, fast scan time course. To be noted: 400 ng/ml PMA, fast scan. As to the method: Fast scan analysis was also performed on HL-60 cells that were treated with PMA and DMSO. A time course evaluation of PMA treated HL-60 cells was performed with fast scan data taken at 16 hours, 24 hours, 40 hours, and 72 hours post-treatment with 400 ng/ml PMA. A control sample of HL-60 cells was also tested using EtOH as the vehicle for purposes of comparing the differentiated cells with the undifferentiated HL-60 cells. The PMA-treated and control cells were harvested and trypsinized. The samples were then resuspended in PBS/1% BSA. A set of samples was also obtained and left as pellets at 4° C. for subsequent FACS analysis.
A time course evaluation of DMSO treated HL-60 cells was performed with fast scan data taken at 16 hours, 24 hours, 40 hours, and 70 hours post-treatment with 1% DMSO. A control sample of HL-60 cells was also tested for purposes of comparing the differentiated cells with the undifferentiated HL-60 cells. The DMSO-treated and control cells were then harvested and resuspended in PBS/1% BSA. A set of samples was also obtained and left as pellets at 4° C. for subsequent FACS analysis.

`CCCCCCCCCCCCCC(=O)O[C@@H]1[C@@H](C)[C@@]2(O)[C@@H](C=C(CO)C[C@]3(O)C(=O)C(C)=C[C@@H]23)[C@@H]2C(C)(C)[C@]12OC(C)=O` [PMA, phorbol 12 myristate 13-acetate]: the “distribution of escape velocities” value with U937 cells [1] (0.01 μg/ml PMA, 6 and 9 hours post treatment (FIG. 31)) is given as “clear trend toward higher escape velocities over time”. Also, the “escape velocity, Average” value with U937 cells [1] (1 hour of PMA activation) amounted to 15.3 μm/sec; in the assay with U937 cells [1] (6 hours of PMA activation), 28.0 μm/sec; in the assay on U937 cells [2] (1.25 ng/ml PMA) it was 17.0 μm/sec; with U937 cells [2] (2.5 ng/ml PMA) it was 17.0 μm/sec; in the assay on U937 cells [2] (5 ng/ml PMA), 17.3 μm/sec; in the assay with U937 cells [2] (.156 ng/ml PMA), 15.8 μm/sec. In addition, the figures for the “escape velocity, Average” value in the assay with U937 cells [2] (.312 ng/ml PMA) and in the assay on U937 cells [2] (.625 ng/ml PMA) were 16.0 μm/sec and 16.6 μm/sec, respectively. The EC50 with U937 cells [2] (Homo sapiens, U-937, 5 h, U937 cells, five hours (FIG. 53), read-out: EC50 value of the PMA dose response curve (escape velocity)) is approximately 0.625 ng/mL (≈ 1.01 nM). Further, the “time after treatment at which Optophoretic analysis detected cellular differentiation into monocytes/macrophages” value in the assay with HL-60 cells is not above 16 h.
